Results as given in US9388141B2, “Acylaminocycloalkyl compounds suitable for treating disorders that respond to modulation of dopamine D3 receptor” (AbbVie Deutschland GmbH & Co. KG, priority 2013, dated 2016).

Tests used:
[1] = Determination of the microsomal half-life / microsomal clearance; format: in vitro ADME; settings: human liver microsomes, 0.5 μM test substance, 0.25 mg microsomal protein/ml, pH 7.4, 37° C.
Method: The metabolic stability of the compounds of the invention was determined in the following assay.
The test substances were incubated in a concentration of 0.5 μM as follows:
0.5 μM test substance are preincubated together with liver microsomes from different species (from rat, human or other species) (0.25 mg of microsomal protein/ml) in 0.05 M potassium phosphate buffer of pH 7.4 in microtiter plates at 37° C. for 5 min. The reaction is started by adding NADPH (1 mg/mL). After 0, 5, 10, 15, 20 and 30 min, 50 μl aliquots are removed, and the reaction is immediately stopped and cooled with the same volume of acetonitrile. The samples are frozen until analyzed. The remaining concentration of undegraded test substance is determined by MSMS. The half-life (T1/2) is determined from the gradient of the signal of test substance/unit time plot, it being possible to calculate the half-life of the test substance, assuming first order kinetics, from the decrease in the concentration of the compound with time. The microsomal clearance (mCl) is calculated from mCl=1n2/T1/2/(content of microsomal protein in mg/ml)×1000 [[…]] (modified from references: Di, The Society for Biomoleculur Screening, 2003, 453-462; Obach, DMD, 1999 vol 27. N 11, 1350-1359).

[2] = target: T1, human dopamine D2L receptors (long isoform) (Homo sapiens, UniProt P14416); assay: Dopamine D2L receptor binding, [125I]-iodospiperone displacement; settings: selectivity ratio Ki (D2L)/Ki (D3)
T1 construct: expressed in transfected cells; host or cells: HEK-293
T1 sequence (P14416 whole entry, canonical isoform): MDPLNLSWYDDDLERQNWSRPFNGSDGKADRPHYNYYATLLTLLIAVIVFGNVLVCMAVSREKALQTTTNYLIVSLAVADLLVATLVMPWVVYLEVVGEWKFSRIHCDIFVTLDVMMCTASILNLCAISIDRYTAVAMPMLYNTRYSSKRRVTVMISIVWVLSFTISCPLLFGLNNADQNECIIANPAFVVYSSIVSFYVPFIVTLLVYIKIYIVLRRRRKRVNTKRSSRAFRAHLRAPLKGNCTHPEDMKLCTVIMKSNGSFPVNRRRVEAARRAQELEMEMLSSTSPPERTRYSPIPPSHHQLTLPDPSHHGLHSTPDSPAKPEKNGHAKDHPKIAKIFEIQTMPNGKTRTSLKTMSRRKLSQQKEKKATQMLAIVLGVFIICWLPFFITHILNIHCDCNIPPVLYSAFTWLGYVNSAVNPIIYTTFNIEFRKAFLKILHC
Method: (§1) The substance to be tested was either dissolved in methanol/Chremophor® (BASF SE) or in dimethyl sulfoxide and then diluted with water to the desired concentration.
(§2) Each assay mixture was run in triplicate. • The incubation buffer contained 50 mM tris, 120 mM NaCl, 5 mM KCl, 2 mM CaCl2, 2 mM MgCl2 and 0.1% bovine serum albumin, 10 μM quinolone and 0.1% ascorbic acid (prepared fresh daily). […] Each assay mixture was run in triplicate. • The incubation buffer contained 50 mM tris, 120 mM NaCl, 5 mM KCl, 2 mM CaCl2, 2 mM MgCl2 and 0.1% bovine serum albumin. The buffer was adjusted to pH 7.4 with HCl. c) Measurement and Analysis: • After having been incubated at 25° C. for 60 minutes, the assay mixtures were filtered through a Whatman GF/B glass fiber filter under vacuum using a cell collecting device. The filters were transferred to scintillation viols using a filter transfer system. After 4 ml of Ultima Gold® (Packard) have been added, the samples were shaken for one hour and the radioactivity was then counted in a Beta-Counter (Packard, Tricarb 2000 or 2200CA).

[3] = target: T2, human dopamine D3 receptors (Homo sapiens, UniProt P35462); assay: Dopamine D3 receptor binding, [125I]-iodosulpride displacement; settings: membranes of HEK-293 cells with human D3 receptors, 0.1 nM [125I]-iodosulpride
T2 construct: expressed in transfected cells; host or cells: HEK-293
T2 sequence (P35462 whole entry): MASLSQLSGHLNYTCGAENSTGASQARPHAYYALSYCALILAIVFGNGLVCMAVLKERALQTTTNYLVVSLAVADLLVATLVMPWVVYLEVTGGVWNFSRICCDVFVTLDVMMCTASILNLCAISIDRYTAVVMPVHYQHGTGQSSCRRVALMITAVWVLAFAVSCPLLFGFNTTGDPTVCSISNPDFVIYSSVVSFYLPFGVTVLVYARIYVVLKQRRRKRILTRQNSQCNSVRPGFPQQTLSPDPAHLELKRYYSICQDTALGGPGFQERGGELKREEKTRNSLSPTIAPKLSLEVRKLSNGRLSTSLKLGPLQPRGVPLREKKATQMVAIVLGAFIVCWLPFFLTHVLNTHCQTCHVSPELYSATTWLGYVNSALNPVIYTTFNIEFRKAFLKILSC
Method: as §1, §2

Compound | Human mCl [1] | D2/D3, Ki (D2L)/Ki (D3) [2] | Ki [3]
CC(C)(C)c1nc(C(F)F)cc(N2CCN(CCC3CCC(NC(=O)C4CCC(O)CC4)CC3)CC2)n1 (stereo not shown) [Compound 29, N-[4-[2-[4-[2-tert-butyl-6-(difluoromethyl)pyrimidin-4-yl]piperazin-1-yl]ethyl]cyclohexyl]-4-hydroxy-cyclohexanecarboxamide] | + (+: 20-120 μl min^−1 mg^−1) | + (+>10) | < 10 nM
CC(C)(C)c1nc(C2CCC2)cc(N2CCN(CC[C@H]3CC[C@H](NC(=O)[C@H]4C[C@@H](O)C4)CC3)CC2)n1 [Compound 13, Cis-N-[trans-4-[2-[4-(2-tert-butyl-6-cyclobutyl-pyrimidin-4-yl)piperazin-1-yl]ethyl]cyclohexyl]-3-hydroxy-cyclobutanecarboxamide] | ∘ (∘: >120 μl min^−1 mg^−1) | ++ (++>20) | < 10 nM
CC(C)(C)c1nc(C2CCCC2)cc(N2CCN(CC[C@H]3CC[C@H](NC(=O)[C@H]4CC[C@H](O)CC4)CC3)CC2)n1 [Compound 35, trans-N-[trans-4-[2-[4-(2-tert-butyl-6-cyclopentyl-pyrimidin-4-yl)piperazin-1-yl]ethyl]cyclohexyl]-4-hydroxy-cyclohexanecarboxamide] | + (+: 20-120 μl min^−1 mg^−1) | + (+>10) | < 10 nM
CC(C)(C)c1nc(C2CCC2)cc(N2CCN(CC[C@H]3CC[C@H](NC(=O)C4CC(O)(C(F)(F)F)C4)CC3)CC2)n1 (relative stereo) [Compound 19, N-[trans-4-[2-[4-(2-tert-butyl-6-cyclobutyl-pyrimidin-4-yl)piperazin-1-yl]ethyl]cyclohexyl]-3-hydroxy-3-(trifluoromethyl)cyclobutanecarboxamide] | + (+: 20-120 μl min^−1 mg^−1) | + (+>10) | < 10 nM
COCCc1cc(N2CCN(CC[C@H]3C[C@@H](NC(=O)[C@H]4CC[C@H](O)CC4)C3)CC2)nc(C(C)(C)C)n1.O=C(O)C(F)(F)F [Compound 8, trans-N-[cis-3-[2-[4-[2-tert-butyl-6-(2-methoxyethyl)pyrimidin-4-yl]piperazin-1-yl]ethyl]cyclobutyl]-4-hydroxy-cyclohexanecarboxamide; 2,2,2-trifluoroacetic acid] | + (+: 20-120 μl min^−1 mg^−1) | +++ (+++>50) | < 10 nM
CC(C)(C)c1cc(N2CCN(CC[C@H]3CC[C@@H](NC(=O)[C@H]4CC[C@H](O)CC4)CC3)CC2)nc(C(C)(C)C)n1 [Compound 22, trans-N-[cis-4-[2-[4-(2,6-ditert-butylpyrimidin-4-yl)piperazin-1-yl]ethyl]cyclohexyl]-4-hydroxy-cyclohexanecarboxamide] | + (+: 20-120 μl min^−1 mg^−1) | +++ (+++>50) | < 50 nM
COCCc1cc(N2CCN(CC[C@H]3CC[C@H](NC(=O)[C@H]4CC[C@H](OC)CC4)CC3)CC2)nc(C(C)(C)C)n1 [Compound 24, trans-N-[trans-4-[2-[4-[2-tert-butyl-6-(2-methoxyethyl)pyrimidin-4-yl]piperazin-1-yl]ethyl]cyclohexyl]-4-methoxy-cyclohexanecarboxamide] | ∘ (∘: >120 μl min^−1 mg^−1) | ++ (++>20) | < 50 nM
CC(C)(C)c1nc(C2CCC2)cc(N2CCN(CC[C@H]3C[C@@H](NC(=O)[C@H]4CC[C@H](O)CC4)C3)CC2)n1 [Compound 10, Trans-N-[cis-3-[2-[4-(2-tert-butyl-6-cyclobutyl-pyrimidin-4-yl)piperazin-1-yl]ethyl]cyclobutyl]-4-hydroxy-cyclohexanecarboxamide] | + (+: 20-120 μl min^−1 mg^−1) | +++ (+++>50) | < 10 nM
COCc1cc(N2CCN(CC[C@H]3CC[C@H](NC(=O)[C@H]4C[C@@H](O)C4)CC3)CC2)nc(C(C)(C)C)n1 [Compound 40, cis-N-[trans-4-[2-[4-[2-tert-butyl-6-(methoxymethyl)pyrimidin-4-yl]piperazin-1-yl]ethyl]cyclohexyl]-3-hydroxy-cyclobutanecarboxamide] | + (+: 20-120 μl min^−1 mg^−1) | – | –
